{"source": "paper PMC3303072", "about": "(Cell Biology and Toxicology, 2012)", "key": {"CYP3A4": {"test_system": "CYP3A4", "conditions": "human"}, "HepG2 cells [1]": {"test_system": "HepG2 cells", "assay_type": "cell-based, human", "conditions": "control (DMSO) vs induced, 24 h; for Number of differentially expressed probes, Down: fold change <-2, 1,250 probes; for Number of differentially expressed probes, Up: fold change >2, 1,250 probes; for Number of differentially expressed probes, Either: fold change >2 or <-2, 1,250 probes"}, "HepaRG cells [2]": {"test_system": "HepaRG cells", "assay_type": "cell-based, human", "conditions": "control (DMSO) vs induced, 24 h; for Number of differentially expressed probes, Down: fold change <-2, 1,250 probes; for Number of differentially expressed probes, Up: fold change >2, 1,250 probes; for Number of differentially expressed probes, Either: fold change >2 or <-2, 1,250 probes"}, "[3]": {"test_system": "primary human hepatocytes", "assay_type": "cell-based", "conditions": "control (DMSO) vs induced, 24 h, 1,250 probes; for Number of differentially expressed probes, Down: fold change <-2; for Number of differentially expressed probes, Up: fold change >2; for Number of differentially expressed probes, Either: fold change >2 or <-2"}, "in vitro [4]": {"test": "in vitro", "conditions": "human, Cytotoxicity class by LC50"}, "[5]": {"test_system": "cryopreserved human hepatocytes", "conditions": "for Cytotoxicity (in words): cryopreserved HH compared with HepG2 and HepaRG, xCELLigence; for Cytotoxicity class by LC50: cryopreserved HH (3 donors), xCELLigence cell index, LC50 after 48 and 72 h"}, "[6]": {"conditions": "read-out: Cmax (the maximum concentration of a drug in the blood after dosing); in vivo studies; cited from earlier work"}, "[7]": {"conditions": "100 mM stock in 100% DMSO; a 50 mM stock was prepared instead"}, "HepaRG cells [8]": {"test_system": "HepaRG cells", "conditions": "xCELLigence cell index, LC50 after 48 and 72 h"}, "HepG2 cells [9]": {"test_system": "HepG2 cells", "conditions": "xCELLigence cell index, LC50 after 48 and 72 h"}, "CYP1A2": {"test_system": "CYP1A2", "conditions": "human"}, "in vitro [10]": {"test": "in vitro", "conditions": "human, Cytotoxicity class by LC50", "remark": "listed apart in the source"}, "in vitro [11]": {"test": "in vitro", "conditions": "human, Cytotoxicity class by LC50", "remark": "listed apart in the source"}}, "note": "Like-named read-outs stand apart in the source and are kept apart here."}
{"smiles": "CCC1(c2ccccc2)C(=O)NC(=O)NC1=O", "note": "[PB, phenobarbital]", "values": [{"measurement": "Fold increase in CYP3A4 activity", "setting": "CYP3A4", "result": 36.6, "unit": "times"}, {"measurement": "Number of differentially expressed probes, Down", "setting": "HepG2 cells [1]", "result": 60}, {"measurement": "Number of differentially expressed probes, Up", "setting": "HepG2 cells [1]", "result": 17}, {"measurement": "Number of differentially expressed probes, Either", "setting": "HepG2 cells [1]", "result": 77}, {"measurement": "Effect on CYP2B6 activity", "setting": "CYP2B6", "result": "did not have any effect"}, {"measurement": "Number of differentially expressed probes, Down", "setting": "HepaRG cells [2]", "result": 25}, {"measurement": "Number of differentially expressed probes, Up", "setting": "HepaRG cells [2]", "result": 35}, {"measurement": "Number of differentially expressed probes, Either", "setting": "HepaRG cells [2]", "result": 60}, {"measurement": "Number of differentially expressed probes, Down", "setting": "[3]; HH1", "result": 44}, {"measurement": "Number of differentially expressed probes, Up", "setting": "[3]; HH1", "result": 46}, {"measurement": "Number of differentially expressed probes, Either", "setting": "[3]; HH1", "result": 90}, {"measurement": "Number of differentially expressed probes, Down", "setting": "[3]; HH2", "result": 121}, {"measurement": "Number of differentially expressed probes, Up", "setting": "[3]; HH2", "result": 39}, {"measurement": "Number of differentially expressed probes, Either", "setting": "[3]; HH2", "result": 160}, {"measurement": "Number of differentially expressed probes, Down", "setting": "[3]; HH3", "result": 29}, {"measurement": "Number of differentially expressed probes, Up", "setting": "[3]; HH3", "result": 76}, {"measurement": "Number of differentially expressed probes, Either", "setting": "[3]; HH3", "result": 105}]}
{"smiles": "CCCCc1oc2ccccc2c1C(=O)c1cc(I)c(OCCN(CC)CC)c(I)c1", "note": "[amiodarone]", "values": [{"measurement": "CC50", "setting": "in vitro [4]", "result": "< 10", "unit": "µM"}]}
{"smiles": "CC(CCc1ccccc1)NCC(O)c1ccc(O)c(C(N)=O)c1", "note": "(stereo not shown) [labetalol]", "values": [{"measurement": "Cytotoxicity (in words)", "setting": "[5]", "result": "induced cytotoxicity in HH only"}]}
{"smiles": "CO[C@H]1/C=C/O[C@@]2(C)Oc3c(C)c(O)c4c(O)c(c(/C=N/N5CCN(C)CC5)c(O)c4c3C2=O)NC(=O)/C(C)=C\\C=C\\[C@H](C)[C@H](O)[C@@H](C)[C@@H](O)[C@@H](C)[C@H](OC(C)=O)[C@@H]1C", "note": "[RIF, rifampicin]", "values": [{"measurement": "Number of differentially expressed probes, Down", "setting": "HepG2 cells [1]", "result": 22}, {"measurement": "Number of differentially expressed probes, Up", "setting": "HepG2 cells [1]", "result": 27}, {"measurement": "Number of differentially expressed probes, Either", "setting": "HepG2 cells [1]", "result": 49}, {"measurement": "Number of differentially expressed probes, Down", "setting": "HepaRG cells [2]", "result": 22}, {"measurement": "Number of differentially expressed probes, Up", "setting": "HepaRG cells [2]", "result": 41}, {"measurement": "Number of differentially expressed probes, Either", "setting": "HepaRG cells [2]", "result": 63}, {"measurement": "Number of differentially expressed probes, Down", "setting": "[3]; HH1", "result": 61}, {"measurement": "Number of differentially expressed probes, Up", "setting": "[3]; HH1", "result": 26}, {"measurement": "Number of differentially expressed probes, Either", "setting": "[3]; HH1", "result": 87}, {"measurement": "Number of differentially expressed probes, Down", "setting": "[3]; HH2", "result": 49}, {"measurement": "Number of differentially expressed probes, Up", "setting": "[3]; HH2", "result": 39}, {"measurement": "Number of differentially expressed probes, Either", "setting": "[3]; HH2", "result": 88}, {"measurement": "Number of differentially expressed probes, Down", "setting": "[3]; HH3", "result": 22}, {"measurement": "Number of differentially expressed probes, Up", "setting": "[3]; HH3", "result": 59}, {"measurement": "Number of differentially expressed probes, Either", "setting": "[3]; HH3", "result": 81}]}
{"smiles": "C#C[C@]1(O)CC[C@H]2[C@@H]3CCC4=Cc5oncc5C[C@]4(C)[C@H]3CC[C@@]21C", "note": "[danazol]", "values": [{"measurement": "Cmax", "setting": "[6]", "result": 160, "unit": "nM"}]}
{"smiles": "CC(C)C(=O)Nc1ccc([N+](=O)[O-])c(C(F)(F)F)c1", "note": "[flutamide]", "values": [{"measurement": "Cytotoxicity (in words)", "setting": "[5]", "result": "induced cytotoxicity in HH only"}]}
{"smiles": "Nc1c2c(nc3ccccc13)CCCC2", "note": "[tacrine]", "values": [{"measurement": "CC50", "setting": "in vitro [4]", "result": "50 to 100", "unit": "µM"}]}
{"smiles": "CC(=O)N1CCN(c2ccc(OCC3COC(Cn4ccnc4)(c4ccc(Cl)cc4Cl)O3)cc2)CC1", "note": "(stereo not shown) [ketoconazole]", "values": [{"measurement": "Solubility of stock solution", "setting": "[7]", "result": "solubility problems occurred at 100 mM"}, {"measurement": "Cytotoxicity (in words)", "setting": "[5]", "result": "induced cytotoxicity in HH only"}]}
{"smiles": "CCOC(=O)C(C)(C)Oc1ccc(Cl)cc1", "note": "[clofibrate]", "values": [{"measurement": "Cytotoxicity class by LC50", "setting": "HepaRG cells [8]", "result": "non cytotoxic"}, {"measurement": "Cytotoxicity class by LC50", "setting": "HepG2 cells [9]", "result": "non cytotoxic"}, {"measurement": "Cytotoxicity class by LC50", "setting": "[5]", "result": "non cytotoxic"}]}
{"smiles": "O=c1cc(-c2ccccc2)oc2ccc3ccccc3c12", "note": "[BNF, beta-naphthoflavone]", "values": [{"measurement": "Number of differentially expressed probes, Down", "setting": "HepG2 cells [1]", "result": 61}, {"measurement": "Number of differentially expressed probes, Up", "setting": "HepG2 cells [1]", "result": 31}, {"measurement": "Number of differentially expressed probes, Either", "setting": "HepG2 cells [1]", "result": 92}, {"measurement": "Fold increase in CYP1A2 activity", "setting": "CYP1A2", "result": 9.1, "unit": "fold"}, {"measurement": "Number of differentially expressed probes, Down", "setting": "HepaRG cells [2]", "result": 25}, {"measurement": "Number of differentially expressed probes, Up", "setting": "HepaRG cells [2]", "result": 106}, {"measurement": "Number of differentially expressed probes, Either", "setting": "HepaRG cells [2]", "result": 131}, {"measurement": "Number of differentially expressed probes, Down", "setting": "[3]; HH1", "result": 50}, {"measurement": "Number of differentially expressed probes, Up", "setting": "[3]; HH1", "result": 74}, {"measurement": "Number of differentially expressed probes, Either", "setting": "[3]; HH1", "result": 124}, {"measurement": "Number of differentially expressed probes, Down", "setting": "[3]; HH2", "result": 81}, {"measurement": "Number of differentially expressed probes, Up", "setting": "[3]; HH2", "result": 64}, {"measurement": "Number of differentially expressed probes, Either", "setting": "[3]; HH2", "result": 145}, {"measurement": "Number of differentially expressed probes, Down", "setting": "[3]; HH3", "result": 35}, {"measurement": "Number of differentially expressed probes, Up", "setting": "[3]; HH3", "result": 51}, {"measurement": "Number of differentially expressed probes, Either", "setting": "[3]; HH3", "result": 86}]}
{"smiles": "CC/C(=C(\\c1ccccc1)c1ccc(OCCN(C)C)cc1)c1ccccc1", "note": "[tamoxifen]", "values": [{"measurement": "CC50", "setting": "in vitro [10]", "result": "10 to 50", "unit": "µM"}, {"measurement": "CC50", "setting": "in vitro [4]", "result": "< 10", "unit": "µM"}, {"measurement": "CC50", "setting": "in vitro [11]", "result": "10 to 50", "unit": "µM"}]}
{"smiles": "CC(=O)Oc1ccccc1C(=O)O", "note": "[aspirin]", "values": [{"measurement": "Cytotoxicity class by LC50", "setting": "HepaRG cells [8]", "result": "non cytotoxic"}, {"measurement": "Cytotoxicity class by LC50", "setting": "HepG2 cells [9]", "result": "non cytotoxic"}, {"measurement": "Cytotoxicity class by LC50", "setting": "[5]", "result": "non cytotoxic"}]}
